Source: patent US20240391870A1 (Arcturus Therapeutics, Inc., priority 2023, published 2024)

What was measured:
Mouse plasma stability = format: in vitro ADME, CD-1 mouse; conditions: Table 2, mouse plasma 37 C, 1 uM lipid
Experimental: Lipid stock solution was prepared by dissolution of the lipid in isopropanol at the concentration of 5 mg/mL. A requisite volume of the lipid-isopropanol solution was then diluted to 100 μM concentration at a total volume of 1.0 mL with in 50:50 (v/v) ethanol/water. Ten microliters of this 100 μM solution was spiked into 1.0 mL of mouse plasma (BioIVT, Cat. No.: MSE00PLNHUNN, CD-1 mouse, anticoagulant: sodium heparin, not filtered) that was pre-warmed to 37° C. and was stirred at 50 rpm with a magnetic stir bar. The starting concentration of lipids in plasma was thus 1 μM. At time points 0, 15, 30, 45, 60 and 120 min, 0.1 mL of the plasma was withdrawn from the reaction mixture and the protein was precipitated by adding 0.9 mL of ice-cold 4:1 (v/v) acetonitrile/methanol with 1 μg/mL of a selected internal standard lipid added. After filtration through a 0.45 micron 96-well filtering plate, the filtrates were analyzed by LC-MS (Thermo Fisher's Vanquish UHPLC—LTQ XL linear ion trap Mass Spectrometer); Waters XBridge BEH Shield RP18 2.5 micron (2.1×100 mm) column with its matching guard column. Mobile phase A was 0.1% formic acid in water, and mobile phase B was 0.1% formic acid in 1:1 (v/v) acetonitrile/methanol. Flow rate was 0.5 ml/min. Elution gradient was: Time 0-1 min: 10% B; 1-6 min: 10%-95% B; 6-8.5 min: 95% B; 8.5-9 min: 95%-10% B; 9-10 min: 10% B. Mass spectrometry was in positive scanning mode from 600-1100 m/z. The peak of the molecular ion of the lipids was integrated in the extracted ion chromatography (XIC) using Xcalibur software (Thermo Fisher). The relative peak area compared to T=0, after normalization by the peak area of the internal standard, was used as the percentage of the lipid remaining at each time point. T1/2 values were calculated using the first-order decay model.

[1] = In vivo biodegradability assay (lipid in liver); conditions: Table 2, mouse liver, 48 h
Experimental: In vivo biodegradability assay was performed to assess the biodegradability of lipids in the LNP. Briefly, mice were injected with either 0.1 or 0.03 mg/Kg dose and after 24 or 48 hours mice livers were collected. To measure the concentration of lipids in the mouse liver, liver samples were homogenized in appropriate buffer in 1-10 dilution and mixed with the same amount of stabilized plasma. The samples were then mixed with organic solvents spiked with internal standard to precipitate proteins. After centrifugation, supernatant was diluted further with organic solvent before sample analysis by LC-MS. In LC-MS analysis, positive electrospray ionization was used, and multiple reaction monitoring (MRM) parameters were set up to specifically target the lipid analyte and internal standard. Calibration standards were prepared in stabilized plasma and mixed with same amount of homogenization buffer before protein precipitation. Quality control samples with known amounts of lipid was prepared in blank liver homogenate to monitor the precision and accuracy of the assay.

hEPO = hEPO mRNA expression evaluation (hEPO-LNPs); format: in vivo, Balb/c mice; conditions: Table 2; 0.1 mpk i.v., serum hEPO after 6 hr
Experimental: Protocol for hEPO mRNA Expression Evaluation
Lipid formulations comprising a hEPO mRNA below were evaluated for their ability to express hEPO in vivo according to the protocol of this example. All animal experiments were conducted using institutionally-approved protocols (IACUC). In this protocol, female Balb/c mice at least 6-8 weeks of age were purchased from Charles River Laboratory. […] After 6 hr, blood was collected with serum separation tubes, and the serum was isolated by centrifugation. Serum hEPO levels were then measured using an ELISA assay (Human Erythropoietin Quantikine IVD ELISA Kit, R&D Systems, Minneapolis, MD).

factor VII = experiment: Factor VII knock down evaluation (LNP with FVII siRNA); format: in vivo, Balb/C mice; conditions: Table 2, plasma FVII after 48 h vs saline control; for FVII KD % 0.01 mpk: 0.01 mpk i.v.; for FVII KD % 0.03 mpk: 0.03 mpk i.v.
Experimental: Lipid formulations comprising a FVII siRNA further described below were evaluated for their knockdown activity using the protocol of this example. In the FVII evaluation, seven to eight week-old, female Balb/C mice were purchased from Charles River Laboratories (Hollister, CA). The mice were held in a pathogen-free environment and all procedures involving the mice were performed in accordance with guidelines established by the Institutional Animal Care and Use Committee (IACUC). Lipid nanoparticles containing factor VII siRNA were administered intravenously at a dosing volume of 10 mL/kg and two dose levels (0.03 and 0.01 mg/kg). After 48 h, the mice were anesthetized with isoflurane and blood was collected retro-orbitally into Microtainer® tubes coated with 0.109 M sodium citrate buffer (BD Biosciences, San Diego, CA) and processed to plasma. Plasma specimens were tested for factor VII levels immediately or stored at −80° C. for later analysis. Measurement of FVII protein in plasma was determined using the colorimetric Biophen VII assay kit (Aniara Diagnostica, USA). Absorbance was measured at 405 nm and a calibration curve was generated using the serially diluted control plasma to determine levels of factor VII in plasma from treated animals, relative to the saline-treated control animals.

| Structure (SMILES) | Percent remaining in mouse plasma after 2 h (Mouse plasma stability) [%] | In vivo degradability (ng/tissue) at 48h 0.03 mpk [1] | In vivo degradability (ng/tissue) at 48h 0.1 mpk [1] | EPO exprssn (ng/mL) 0.1 mpk (hEPO) [ng/mL] | FVII KD % 0.01 mpk (factor VII) [%] | FVII KD % 0.03 mpk (factor VII) [%] |
| --- | --- | --- | --- | --- | --- | --- |
| Cc1ccc(CCC(C)C(=O)OCC(COC(=O)C(C)CCc2ccc(C)cc2)OC(=O)CCCN(CCCC(=O)OC(COC(=O)C(C)CCc2ccc(C)cc2)COC(=O)C(C)CCc2ccc(C)cc2)C(=O)SCCCN(C)C)cc1 (stereo not drawn) [LIPID 41, ((4,4′-((((3-(dimethylamino)propyl)thio)carbonyl)azanediyl)bis (butanoyl))bis(oxy))bis(propane-2,1,3-triyl)tetrakis(2-methyl-4-(p-tolyl)butanoate)] |  |  |  | 1209 | 56 | 76 |
| CC1CCC(CCC(=O)OCC(C)(COC(=O)CCC2CCC(C)CC2)COC(=O)CCN(CCC(=O)OCC(C)(COC(=O)CCC2CCC(C)CC2)COC(=O)CCC2CCC(C)CC2)C(=O)SCCCN(C)C)CC1 (stereo not drawn) [LIPID 20] | 100 | <340 ng/tissue | <340 ng/tissue | 1148 | 36 | 74 |
| CC1CCC(CC(=O)OCC(C)(COC(=O)CCN(CCC(=O)OCC(C)(COC(=O)CC2CCC(C)CC2)COC(=O)CC2CCC(C)CC2)C(=O)SCCCN(C)C)COC(=O)CC2CCC(C)CC2)CC1 (stereo not drawn) [LIPID 21] | 100 | <340 ng/tissue | <340 ng/tissue | 1028 | 57 | 90 |
| CCCCCCC(C)C(=O)OCC(COC(=O)C(C)CCCCCC)OC(=O)CCCN(CCCC(=O)OC(COC(=O)C(C)CCCCCC)COC(=O)C(C)CCCCCC)C(=O)OCCCN(C)C (stereo not drawn) [LIPID 35, [2-[4-[3-(dimethylamino)propoxycarbonyl-[4-[2-(2-methyloctanoyloxy)-1-(2-methyloctanoyloxymethyl)ethoxy]-4-oxo-butyl]amino]butanoyloxy]-3-(2-methyloctanoyloxy)propyl]2-methyloctanoate] |  |  |  | 678 | 68.5 | 84 |
| CCCCCCCC(=O)OCC(C)(COC(=O)CCCCCCC)COC(=O)CCN(CCC(=O)OCC(C)(COC(=O)CCCCCCC)COC(=O)CCCCCCC)C(=O)SCCCN(C)C [LIPID 24] | 100 | BLOQ | BLOQ | 1420 | 60.5 | 87.4 |
| CCCCC(C)(C)CC(=O)OCC(C)(COC(=O)CCN(CCC(=O)OCC(C)(COC(=O)CC(C)(C)CCCC)COC(=O)CC(C)(C)CCCC)C(=O)SCCCN(C)C)COC(=O)CC(C)(C)CCCC [LIPID 23] | 100 | <340 ng/tissue | <340 ng/tissue | 730 | 17 | 61.7 |
| CCC1CCC(C(=O)OCC(C)(COC(=O)CCN(CCC(=O)OCC(C)(COC(=O)C2CCC(CC)CC2)COC(=O)C2CCC(CC)CC2)C(=O)SCCCN(C)C)COC(=O)C2CCC(CC)CC2)CC1 (stereo not drawn) [LIPID 22] | 100 | <340 ng/tissue | <340 ng/tissue | 1104 | 56 | 87 |
| CCCCCCC(C)C(=O)OCC(COC(=O)C(C)CCCCCC)OC(=O)CCCN(CCCC(=O)OC(COC(=O)C(C)CCCCCC)COC(=O)C(C)CCCCCC)C(=O)NCCCN(C)C (stereo not drawn) [LIPID 36, [2-[4-[3-(dimethylamino)propylcarbamoyl-[4-[2-(2-methyloctanoyloxy)-1-(2-methyloctanoyloxymethyl)ethoxy]-4-oxo-butyl]amino]butanoyloxy]-3-(2-methyloctanoyloxy)propyl]2-methyloctanoate] |  |  |  | 0 | 0 | 0 |

Continued, in another order:

| Percent remaining in mouse plasma after 2 h (Mouse plasma stability) [%] | In vivo degradability (ng/tissue) at 48h 0.03 mpk [1] | In vivo degradability (ng/tissue) at 48h 0.1 mpk [1] | Structure (SMILES) | EPO exprssn (ng/mL) 0.1 mpk (hEPO) [ng/mL] | FVII KD % 0.01 mpk (factor VII) [%] | FVII KD % 0.03 mpk (factor VII) [%] |
| --- | --- | --- | --- | --- | --- | --- |
| 100 | BLOQ | BLOQ | CN(C)CCCSC(=O)N(CCCC(=O)OC(COC(=O)C1CC2CCCCC2C1)COC(=O)C1CC2CCCCC2C1)CCCC(=O)OC(COC(=O)C1CC2CCCCC2C1)COC(=O)C1CC2CCCCC2C1 (stereo not drawn) [LIPID 28] | 216 | 26 | 75.3 |
| 100 | BLOQ | BLOQ | CCCCCCCCC(=O)OCC(COC(=O)CCCCCCCC)COC(=O)CCCN(CCCC(=O)OCC(COC(=O)CCCCCCCC)COC(=O)CCCCCCCC)C(=O)SCCCN(C)C [LIPID 25] | 2945 | 63 | 95 |
| 100 | BLOQ | BLOQ | CCCCCCCCC(=O)OCC(COC(=O)CCCCCCCC)COC(=O)CCN(CCC(=O)OCC(COC(=O)CCCCCCCC)COC(=O)CCCCCCCC)C(=O)SCCN(C)C [LIPID 26] | 70 | 8 | 50 |
| 100 | BLOQ | BLOQ | CN(C)CCCSC(=O)N(CCCC(=O)OC(COC(=O)C1CCC2CCCC2C1)COC(=O)C1CCC2CCCC2C1)CCCC(=O)OC(COC(=O)C1CCC2CCCC2C1)COC(=O)C1CCC2CCCC2C1 (stereo not drawn) [LIPID 30, ((4,4′-((((3-(dimethylamino)propyl)thio)carbonyl)azanediyl)bis (butanoyl))bis(oxy))bis(propane-2,1,3-triyl)tetrakis(octahydro-1H-indene-5-carboxylate)] | 95 | 3.2 | 62.1 |
| 100 | BLOQ | BLOQ | CC1CCC(CCC(=O)OCC(COC(=O)CCC2CCC(C)CC2)COC(=O)CCN(CCC(=O)OCC(COC(=O)CCC2CCC(C)CC2)COC(=O)CCC2CCC(C)CC2)C(=O)SCCCN(C)C)CC1 (stereo not drawn) [LIPID 27] | 69 | 48.1 | 84.9 |
